Experimental data from ChEMBL document CHEMBL1148851, “Chemoenzymatic synthesis and in vitro studies on the hydrolysis of antimicrobial monoglycosyl diglycerides by pancreatic lipase” (2007).
≈ marks a conversion by molar mass, not a printed value.

What was measured:
Type in all cases: functional
Kluyveromyces marxianus = assay: Antifungal activity against Candida pseudotropicalis by dilution method
Staphylococcus aureus [1] = assay: Antibacterial activity against Staphylococcus aureus SA52 isolate
Staphylococcus aureus [2] = assay: Antibacterial activity against Staphylococcus aureus SA85 isolate
[3] = system: Mycobacterium tuberculosis; assay: Antibacterial activity against Mycobacterium tuberculosis H160 by dilution method; conditions: Mycobacterium tuberculosis, H160; read-out: MIC
Enterococcus faecalis = assay: Antibacterial activity against Enterococcus faecalis ATCC 29212
Staphylococcus aureus [4] = assay: Antibacterial activity against Staphylococcus aureus SA87 isolate; conditions: Staphylococcus aureus; read-out: MIC
Escherichia coli = assay: Antibacterial activity against Escherichia coli ATCC 25922
Staphylococcus aureus [5] = assay: Antibacterial activity against Staphylococcus aureus ATCC 25923
Candida albicans = assay: Antifungal activity against Candida albicans by dilution method
Bacillus subtilis = assay: Antibacterial activity against Bacillus subtilis ATCC 6633; conditions: Bacillus subtilis, ATCC 6633; read-out: MIC
Staphylococcus aureus [6] = assay: Antibacterial activity against Staphylococcus aureus ATCC 105487
[7] = system: Mycobacterium tuberculosis; assay: Antibacterial activity against Mycobacterium tuberculosis H37Rv by dilution method; conditions: Mycobacterium tuberculosis, H37Rv; read-out: MIC
[8] = system: Mycobacterium tuberculosis; assay: Antibacterial activity against Mycobacterium tuberculosis H190 by dilution method
Pseudomonas aeruginosa = assay: Antibacterial activity against Pseudomonas aeruginosa ATCC 27753

Row | Structure (SMILES) | MIC (Kluyveromyces marxianus) [mg/L] | MIC (Staphylococcus aureus [1]) [mg/L] | MIC (Staphylococcus aureus [2]) [mg/L] | MIC [3] [mg/L] | MIC (Enterococcus faecalis) [mg/L] | MIC (Staphylococcus aureus [4]) [mg/L] | MIC (Escherichia coli) [mg/L] | MIC (Staphylococcus aureus [5]) [mg/L] | MIC (Candida albicans) [mg/L] | MIC (Bacillus subtilis) [mg/L] | MIC (Staphylococcus aureus [6]) [mg/L] | MIC [7] [mg/L] | MIC [8] [mg/L] | MIC (Pseudomonas aeruginosa) [mg/L]
1 | CC/C=C\C/C=C\C/C=C\CCCCCCCC(=O)OCC(CO[C@@H]1O[C@H](CO)[C@@H](O)[C@H](O)[C@H]1O)OC(=O)CCCCCCC/C=C\C/C=C\C/C=C\CC (some centres not stated) | > 128 | > 128 | > 128 | > 128 | > 128 | > 128 | > 128 | > 128 | > 128 | > 128 | > 128 | > 128 | > 128 | > 128
2 | CCCCCCCC/C=C\CCCCCCCC(=O)OCC(CO[C@@H]1O[C@H](CO)[C@@H](O)[C@H](O)[C@H]1O)OC(=O)CCCCCCC/C=C\CCCCCCCC (some centres not stated) | > 128 | > 128 | > 128 | > 128 | > 128 | > 128 | > 128 | > 128 | > 128 | > 128 | > 128 | > 128 | > 128 | > 128
3 | CC/C=C\C/C=C\C/C=C\CCCCCCCC(=O)OC[C@H](CO[C@@H]1O[C@H](CO)C(O)[C@H](O)[C@H]1O)OC(=O)CCCCCCC/C=C\C/C=C\C/C=C\CC (single isomer, unassigned) | > 128 | > 128 | > 128 | > 128 | > 128 | > 128 | > 128 | 128 (≈ 165 µM) | > 128 | > 128 | > 128 | > 128 | > 128 | > 128
